{"source": "BindingDB's records for patent US20250161319", "about": "(Asclepieion Pharmaceutical, 2025)"}
{"target": "Mitogen-activated protein kinase kinase kinase kinase 1 (Homo sapiens, UniProt Q92918)", "sequence (Q92918 whole entry)": "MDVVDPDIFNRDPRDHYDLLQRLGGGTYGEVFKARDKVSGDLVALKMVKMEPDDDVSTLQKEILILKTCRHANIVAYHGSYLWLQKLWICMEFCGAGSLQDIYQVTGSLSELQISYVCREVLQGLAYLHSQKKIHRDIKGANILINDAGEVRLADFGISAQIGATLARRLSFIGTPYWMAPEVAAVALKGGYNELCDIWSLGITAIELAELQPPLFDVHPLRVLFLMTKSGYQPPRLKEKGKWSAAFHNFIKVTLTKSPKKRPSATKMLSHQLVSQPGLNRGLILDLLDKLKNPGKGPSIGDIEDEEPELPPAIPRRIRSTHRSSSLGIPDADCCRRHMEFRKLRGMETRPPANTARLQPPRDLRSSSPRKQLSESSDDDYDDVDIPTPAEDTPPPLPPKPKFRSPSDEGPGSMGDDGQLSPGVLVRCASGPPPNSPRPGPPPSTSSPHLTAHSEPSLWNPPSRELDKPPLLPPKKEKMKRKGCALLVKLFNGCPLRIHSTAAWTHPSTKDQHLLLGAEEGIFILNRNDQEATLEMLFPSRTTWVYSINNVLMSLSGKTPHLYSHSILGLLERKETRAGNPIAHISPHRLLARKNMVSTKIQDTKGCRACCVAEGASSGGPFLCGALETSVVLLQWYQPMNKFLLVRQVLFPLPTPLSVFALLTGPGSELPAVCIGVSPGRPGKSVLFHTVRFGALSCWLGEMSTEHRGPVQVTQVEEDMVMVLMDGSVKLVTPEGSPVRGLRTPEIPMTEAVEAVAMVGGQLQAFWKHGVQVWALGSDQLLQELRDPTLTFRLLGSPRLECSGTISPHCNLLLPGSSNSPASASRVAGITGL", "experiment": "Tests of Compounds for Inhibiting HPK1 Kinase Activity In Vitro", "description": "The compound dilution was transferred into 384-well plate by using a pipette, afterwards, the 384-well plate was sealed and centrifuged at 1000 g for 1 min. 2-fold concentration of HPK1 solution was prepared in the kinase buffer, and then 2.5 μL of the prepared 2-fold concentration of HPK1 solution was added into the 384 wells, centrifuged at 1000 g for 30 s, and incubated for 10 min at room temperature. A mixture of 2-fold concentration of MBP and ATP was prepare in the kinase buffer, and […] of prepared mixture of 2-fold concentration of MBP and ATP was added into the above reaction system for the reaction, centrifuged at 1000 g for 30 s, and then incubated at room temperature for 1 h, 5 μL of ADP-Glo reagent was added into the reaction system, and incubated at room temperature for 40 min. 10 μL of kinase detection reagent was added and incubated at room temperature for 40 min.", "units": {"IC50": "nM"}}
{"smiles": "CN1CCN(c2ccc(C(=O)Nc3cc4cc(-c5cccn5C)c(F)c(N)c4cn3)cc2)CC1", "note": "[US20250161319, Example 7]", "IC50": "< 300"}
{"smiles": "CCn1cccc1-c1cc2cc(NC(=O)C3CCC(F)CC3)ncc2c(N)c1F", "note": "(configuration not stated) [US20250161319, Example 9]", "IC50": "< 300"}
{"smiles": "CC(C)n1cccc1-c1cc2cc(NC(=O)C3CC3F)ncc2c(N)c1F", "note": "(configuration not stated) [US20250161319, Example 3]", "IC50": "< 50"}
{"smiles": "Cn1cccc1-c1cc2cc(NC(=O)C3CC3F)ncc2c(F)c1C#N", "note": "(configuration not stated) [US20250161319, Example 10]", "IC50": "> 300"}
{"smiles": "Cn1cccc1-c1cc2cc(NC(=O)c3ccc(N4CCNCC4)cc3)ncc2c(N)c1F", "note": "[US20250161319, Example 6]", "IC50": "< 100"}
{"smiles": "C=Cn1cccc1-c1cc2cc(NC(=O)C3CC3F)ncc2c(N)c1F", "note": "(configuration not stated) [US20250161319, Example 4]", "IC50": "< 50"}
{"smiles": "CCn1cccc1-c1cc2cc(NC(=O)C3CC3F)ncc2c(N)c1F", "note": "(configuration not stated) [US20250161319, Example 2]", "IC50": "< 50"}
